34 sequences from the OligoGym collection can be followed below.

“And” between values parts separate entries of the source, which are not always exact repeats. Equal values may be shown once. After the bases stand the sugars from the 5' end (letter, count) and the backbone: PS all phosphorothioate, else s phosphorothioate and o phosphodiester by linkage. Methylation of C is not given here. e = 2'-O-(2-methoxyethyl) (MOE); k = constrained ethyl (cEt); d = 2'-deoxy (DNA); m = 2'-O-methyl

For this data set, the target named is IRF5. As to conditions: ASO.

Sequence GTCTAGTGTCATGGAA (sugars k3 d10 k3, PS) gave a target mRNA inhibition (KARPAS-229, 4 µM) of 38%. Still for that read-out and setting: with “GTTATCTCCGTCCTGG (sugars kkddddddddddkeke, PS)” the figure was 0%.

As for “CAGGTTCTTGGACTCT (sugars k3 d9 k3 e1, PS)”, the target mRNA inhibition (KARPAS-229, 4 µM) was 0%. Same read-out and setting: with “TCACCACTGTGTACCC (sugars k2 d8 e4 k2, PS)” the figure was 0%; with “AAGGGCACAGCGCAGG (sugars kddddddddddkekek, PS)”, 0%. On to “TGTCTAGTGTCATGGA (sugars kkdmdddddddeeekk, PS)”, for which the target mRNA inhibition (A-431, 0.00412 µM) was determined as 0%; the target mRNA inhibition (A-431, 0.01225 µM) worked out at 11%; the target mRNA inhibition (A-431, 0.03704 µM) stood at 5%; the target mRNA inhibition (A-431, 0.11111 µM) turned out to be 15%; the target mRNA inhibition (A-431, 0.33333 µM) was 25%; the target mRNA inhibition (A-431, 1 µM) is 33%. As to “GTGTATTTCCCTGTCT (sugars kkkddddddddkekek, PS)”, the target mRNA inhibition (KARPAS-229, 4 µM) turned out to be 0%.

For the sequence “TCTTGACCTCCCGCTG (sugars kddddddddddkekek, PS)”, the target mRNA inhibition (KARPAS-229, 4 µM) was 46%. Same read-out and setting: as for “GTCTGGCCCTTTTGGA (sugars kkddddddddddkeke, PS)”, the figure is 0%; as for “CTTCTGCAGGGAGTCA (sugars kkddddddddkekekk, PS)”, 0%.

“GCTGTCACATCTCCAC (sugars kdddddddddkekeke, PS)” displayed a target mRNA inhibition (KARPAS-229, 4 µM) of 0%. Consider “TCTGATATGATACCTA (sugars k3 d1 k1 d8 k3, PS)”, for which the target mRNA inhibition amounted to 0% (A-431, 0.00412 µM); 7% (A-431, 0.01225 µM); 43% (A-431, 0.03704 µM); 65% (A-431, 0.11111 µM); 81% (A-431, 0.33333 µM); 85% (A-431, 1 µM). For the setting “KARPAS-229, 4 µM”, TGCCTTCTGCAGGGAG (sugars k3 d10 k3, PS) registered a target mRNA inhibition of 0%.

Sequence “CCCAATGCAACATCCA (sugars k3 d9 k3 e1, PS)” yielded a target mRNA inhibition (KARPAS-229, 4 µM) of 0%. Under “KARPAS-229, 4 µM”, “TTCTGCAGGGAGTCAG (sugars kkddddddddkekekk, PS)” returned a target mRNA inhibition of 0%. On the same count and under the same terms, with “GGTCTTGACCTCCCGC (sugars kkddddddddkekekk, PS)” the figure was 44%; with “CTTCTGCAGGGAGTCA (sugars k2 d8 e4 k2, PS)”, 0%; with “GGTCTTTGAGGTCTGG (sugars kkdddddddddkekek, PS)”, 54%. Still for that read-out and setting: as for “CATTCTATGCCTTTTA (sugars kdddddddddkekeke, PS)”, the figure is 13%; as for “CCACTGTGTACCCCAT (sugars k2 d8 e4 k2, PS)”, 44%; as for “CCATTCTATGCCTTTT (sugars k2 d9 e3 k2, PS)”, 50%. The same measure, in the same setting: with “ACCACTGTGTACCCCA (sugars k3 d9 k3 e1, PS)” the figure was 47%; with “AGGAGTGAGACGAGCA (sugars kkddddddddddkeke, PS)”, 28%. For the setting “KARPAS-229, 4 µM”, “AAGGGCACAGCGCAGG (sugars kkdddddddddkekek, PS)” yielded a target mRNA inhibition of 0%. Same read-out and setting: as for “GTGAGTCTCAAACCAG (sugars kkkdddddddddkeke, PS)”, the figure is 0%. Take ATGAGTAATAGGAGTG (sugars k3 d10 k3, PS): the target mRNA inhibition (KARPAS-229, 0.44444 µM) came to 15%; the target mRNA inhibition (KARPAS-229, 1.33333 µM) was determined as 46%; the target mRNA inhibition (KARPAS-229, 4 µM) is 56% and 52%; the target mRNA inhibition (KARPAS-229, 12 µM) was 70%. Where the note is “KARPAS-229, 4 µM”, TAAGGGCACAGCGCAG (sugars k3 d10 k3, PS) returned a target mRNA inhibition of 0%. Same read-out and setting: with “GCATTCCATATACACA (sugars kkkddddddddkekek, PS)” the figure was 0%; with TTTTGTGACTGTATTA (sugars k3 d10 k3, PS), 2%.

In the case of “AGGTTCTTGGACTCTC (sugars kdddddddddkekeke, PS)”, for the setting “KARPAS-229, 4 µM”, the target mRNA inhibition was determined as 0%. In the case of TGTCTAGTGTCATGGA (sugars k3 d10 k3, PS), the target mRNA inhibition (KARPAS-229, 0.44444 µM) came to 0%; the target mRNA inhibition (KARPAS-229, 1.33333 µM) turned out to be 42%; the target mRNA inhibition (KARPAS-229, 4 µM) is 61% and 65%; the target mRNA inhibition (KARPAS-229, 12 µM) is 74%. Take AAGATGGTGTTATCTC (sugars k3 d10 k3, PS): the target mRNA inhibition (KARPAS-229, 4 µM) came to 0%. On the same count and under the same terms, with “GTTATCTCCGTTCCTGG (sugars kddddddddddkekekd, PS)” the figure was 0%.

Regarding “TTATTTCTGCTCCAGG (sugars kekdddddddddeekk, PS)”, the target mRNA inhibition is, setting by setting: (KARPAS-229, 0.44444 µM) 53%; (KARPAS-229, 1.33333 µM) 69%; (KARPAS-229, 4 µM) 56% and 80%; (KARPAS-229, 12 µM) 86%.
